The subject of data set [1] is microfilariae of Dirofilaria immitis. Description: Dirofilaria immitis, Microfilaria (DiMF) In vitro Assay. It is filed as cell-based. To be noted: 72 h, read-out: DiMF Minimum Effective Dose (MED), approximately 72 hours incubation, microfilariae assessed for survival or paralysis.
Data set [2] deals with third stage larvae of Haemonchus contortus. Description: Haemonchus contortus L3 (HcL3) Assay. The note with it: 96 h, read-out: HcL3 Minimum Effective Dose (MED). It is filed as cell-based.
Data set [3] is described as follows: Canine pharmacokinetic (PK) study, single IV or oral dose. The note with it: dog; for Vd / clearance / half-life / Cmax: in vivo; for Vd / clearance / half-life: iv, 0.2 mg/kg; for Cmax: po, 1 mg/kg; for F: oral 1 mg/kg.
Data set [4] concerns 4th stage larvae (L4) of Dirofilaria immitis. Nature of the data set: Dirofilaria immitis, L4 Stage (DiL4) In Vitro Assay. It is filed as cell-based. The note with it: Dirofilaria immitis, 72 h, read-out: DiL4 Minimum Effective Dose (MED), approximately 72 hours incubation; L4 larvae assessed for survival or paralysis.

With `CCOc1cnn(Cc2ccc(C[C@H]3OC(=O)[C@H](CC(C)C)N(C)C(=O)[C@@H](C)OC(=O)[C@H](CC(C)C)N(C)C(=O)[C@@H](Cc4ccc(Cn5cc(OCC)cn5)cc4)OC(=O)[C@H](CC(C)C)N(C)C(=O)[C@@H](C)OC(=O)[C@H](CC(C)C)N(C)C3=O)cc2)c1` [Example 1b-21, (3S,6R,9S,12R,15S,18R,21S,24R)-6,18-bis[[4-[(4-ethoxypyrazol-1-yl)methyl]phenyl]methyl]-3,9,15,21-tetraisobutyl-4,10,12,16,22,24-hexamethyl-1,7,13,19-tetraoxa-4,10,16,22-tetrazacyclotetracosane-2,5,8,11,14,17,20,23-octaone], the minimal effective concentration in data set [1] lay in the range of 0.001 to 0.01 µM. Besides, in data set [2], the minimal effective concentration was 1 to 10 µM. In data set [3], this compound gave a Vd of 28.4 L/kg, a clearance of 15.5 mL/min/kg, a half-life of 36.1 h and a Cmax of 145 ng/mL. This compound also had a F in data set [3] of 78%. The minimal effective concentration in data set [4] is 0.0001 to 0.001 µM.
In data set [3], `CC(C)C[C@H]1C(=O)O[C@H](Cc2ccc(Cn3ccc(-c4ccccc4)n3)cc2)C(=O)N(C)[C@@H](CC(C)C)C(=O)O[C@H](C)C(=O)N(C)[C@@H](CC(C)C)C(=O)O[C@H](Cc2ccc(Cn3ccc(-c4ccccc4)n3)cc2)C(=O)N(C)[C@@H](CC(C)C)C(=O)O[C@H](C)C(=O)N1C` [Example 1b-68, (3S,6R,9S,12R,15S,18R,21S,24R)-3,9,15,21-tetraisobutyl-4,6,10,16,18,22-hexamethyl-12,24-bis(4-((3-phenyl-1H-pyrazol-1-yl)methyl)benzyl)-1,7,13,19-tetraoxa-4,10,16,22-tetraazacyclotetracosan-2,5,8,11,14,17,20,23-octaone] had a Vd of 7.58 L/kg, a clearance of 1 mL/min/kg, a half-life of 163 h and a Cmax of 39 ng/mL. The compound also had a F in data set [3] of 4%. Further, in data set [4], the minimal effective concentration lay in the range of 0.001 to 0.01 µM.
In data set [3], `CC(C)C[C@H]1C(=O)O[C@H](Cc2ccc(CN3CCOc4ccccc43)cc2)C(=O)N(C)[C@@H](CC(C)C)C(=O)O[C@H](C)C(=O)N(C)[C@@H](CC(C)C)C(=O)O[C@H](Cc2ccc(CN3CCOc4ccccc43)cc2)C(=O)N(C)[C@@H](CC(C)C)C(=O)O[C@H](C)C(=O)N1C` [Example 9-26, (3S,6R,9S,12R,15S,18R,21S,24R)-6,18-bis(4-((2,3-dihydro-4H-benzo[b][1,4]oxazin-4-yl)methyl)benzyl)-3,9,15,21-tetraisobutyl-4,10,12,16,22,24-hexamethyl-1,7,13,19-tetraoxa-4,10,16,22-tetraazacyclotetracosan-2,5,8,11,14,17,20,23-octaone] gave a Vd of 0.6 L/kg, a clearance of 0.1 mL/min/kg, a half-life of 106 h and a Cmax of 71 ng/mL. The same compound had a F in data set [3] of 1%. Moreover, in data set [4], the minimal effective concentration fell in the range of 0.0001 to 0.001 µM.
Turning to `CC(C)C[C@H]1C(=O)O[C@H](Cc2ccc(Cn3cc(OC(C)C)cn3)cc2)C(=O)N(C)[C@@H](CC(C)C)C(=O)O[C@H](C)C(=O)N(C)[C@@H](CC(C)C)C(=O)O[C@H](Cc2ccc(Cn3cc(OC(C)C)cn3)cc2)C(=O)N(C)[C@@H](CC(C)C)C(=O)O[C@H](C)C(=O)N1C` [Example 1b-19, (3S,6R,9S,12R,15S,18R,21S,24R)-3,9,15,21-tetraisobutyl-6,18-bis[[4-[(4-isopropoxypyrazol-1-yl)methyl]phenyl]methyl]-4,10,12,16,22,24-hexamethyl-1,7,13,19-tetraoxa-4,10,16,22-tetrazacyclotetracosane-2,5,8,11,14,17,20,23-octaone], the minimal effective concentration in data set [1] fell in the range of 0.001 to 0.01 µM. In addition, in data set [2], the minimal effective concentration fell in the range of 1 to 10 µM. In data set [3], this compound showed a Vd of 7.25 L/kg, a clearance of 2.4 mL/min/kg, a half-life of 87 h and a Cmax of 267 ng/mL. The F in data set [3] is recorded as 24%. The minimal effective concentration in data set [4] fell in the range of 0.001 to 0.01 µM.
Regarding `CC(C)C[C@H]1C(=O)O[C@H](Cc2ccc(Cn3ccc(C(F)(F)F)n3)cc2)C(=O)N(C)[C@@H](CC(C)C)C(=O)O[C@H](C)C(=O)N(C)[C@@H](CC(C)C)C(=O)O[C@H](Cc2ccc(Cn3ccc(C(F)(F)F)n3)cc2)C(=O)N(C)[C@@H](CC(C)C)C(=O)O[C@H](C)C(=O)N1C` [Example 1b-69, (3S,6R,9S,12R,15S,18R,21S,24R)-3,9,15,21-tetraisobutyl-4,6,10,16,18,22-hexamethyl-12,24-bis(4-((3-(trifluoromethyl)-1H-pyrazol-1-yl)methyl)benzyl)-1,7,13,19-tetraoxa-4,10,16,22-tetraazacyclotetracosan-2,5,8,11,14,17,20,23-octaone], the minimal effective concentration in data set [1] is 0.01 to 0.1 µM. Further, in data set [3], the Vd was 3.81 L/kg, the clearance was determined as 1 mL/min/kg, the half-life was 256 h and the Cmax turned out to be 27 ng/mL. In data set [3], the F is 5%. Also, the minimal effective concentration in data set [4] was in the range of 0.001 to 0.01 µM.
For `CC(C)C[C@H]1C(=O)O[C@H](Cc2ccc(Cn3nc(C(F)(F)F)cc3C(F)(F)F)cc2)C(=O)N(C)[C@@H](CC(C)C)C(=O)O[C@H](C)C(=O)N(C)[C@@H](CC(C)C)C(=O)O[C@H](Cc2ccc(Cn3nc(C(F)(F)F)cc3C(F)(F)F)cc2)C(=O)N(C)[C@@H](CC(C)C)C(=O)O[C@H](C)C(=O)N1C` [Example 1b-15, (3S,6R,9S,12R,15S,18R,21S,24R)-6,18-bis[(4-{[3,5-bis(trifluoromethyl)-1H-pyrazol-1-yl]methyl}phenyl)methyl]-4,10,12,16,22,24-hexamethyl-3,9,15,21-tetrakis(2-methylpropyl)-1,7,13,19-tetraoxa-4,10,16,22-tetraazacyclotetracosan-2,5,8,11,14,17,20,23-octaone], the minimal effective concentration in data set [1] was 0.01 to 0.1 µM. In data set [3], this compound gave a Vd of 0.32 L/kg, a clearance of 0.05 mL/min/kg, a half-life of 67 h and a Cmax of 5 ng/mL. In data set [3], this compound returned an F of 0.2%. For the same compound, the minimal effective concentration in data set [4] was at most 0.0001 µM.
As to `CC(C)C[C@H]1C(=O)O[C@H](Cc2ccc(Cn3cccn3)cc2)C(=O)N(C)[C@@H](CC(C)C)C(=O)O[C@H](C)C(=O)N(C)[C@@H](CC(C)C)C(=O)O[C@H](Cc2ccc(Cn3cccn3)cc2)C(=O)N(C)[C@@H](CC(C)C)C(=O)O[C@H](C)C(=O)N1C` [Example 1b-23, (3S,6R,9S,12R,15S,18R,21S,24R)-3,9,15,21-tetraisobutyl-4,6,10,16,18,22-hexamethyl-12,24-bis[[4-(pyrazol-1-ylmethyl)phenyl]methyl]-1,7,13,19-tetraoxa-4,10,16,22-tetrazacyclotetracosane-2,5,8,11,14,17,20,23-octaone], the minimal effective concentration in data set [2] is at most 1 µM. Also, in data set [3], the Vd was found to be 8.54 L/kg, the clearance worked out at 14 mL/min/kg, the half-life was 27 h and the Cmax was 205 ng/mL. The compound also had a F in data set [3] of 34%. Besides, the minimal effective concentration in data set [4] lay within 0.0001 to 0.001 µM.

Values taken from patent publication US11331369B2, “Endoparasitic depsipeptides” (Zoetis Services LLC, priority 2017, dated 2022).
